Counter-ions that a name gives are not always drawn.

One experiment deals with p70S6K (h) (Homo sapiens, UniProt P23443). Nature of the experiment: Determination of p70S6 inhibitory activity (radiometric 33P-ATP filter assay). The format is biochemical. The note with it: 40 min at room temperature, read-out: IC50 against P70S6 kinase. As to the method:
The ability of compounds of the invention to inhibit P70S6 kinase was determined using the protocol below.
• 20 mM MOPS, 1 mM EDTA, 0.01% Brij-35, 5% Glycerol, 0.1% b-mercaptoethanol, 1 mg/mL BSA Method: • p70S6K (h)
In a final reaction volume of 25 μL, p70S6K (h) (5-10 mU) is incubated with 8 mM MOPS pH 7.0, 0.2 mM EDTA, 100 μM KKRNRTLTV, 10 mM Mg acetate and [γ-33P-ATP] (specific activity approx. 500 cpm/pmol, concentration as required). The reaction is initiated by the addition of the MgATP mix. After incubation for 40 minutes at room temperature, the reaction is stopped by the addition of 5 μL of a 3% phosphoric acid solution. 10 μL of the reaction mixture is then spotted onto a P30 filtermat and washed three times for 5 minutes in 75 mM phosphoric acid and once in methanol prior to drying and scintillation counting.

The subject of experiment [1] is phosphorylation of S6 Ser235/236 in MCF-7 cells. The experiment in a line: Inhibition of P70S6K activity in whole cells: phospho-S6 ELISA in MCF-7 cells. The note with it: Homo sapiens, MCF7, 2 h incubation, 1% FBS. The format is cell-based. How it is done:
The following assay provides IC50 values for inhibition of P70S6K activity in a whole cell assay by determining effects on the phosphorylation of S6^Ser235/236 in MCF-7 cells by ELISA.
The following protocol was used: • 1) MCF-7 cells were seeded in 96-well plates at a density of 7×10^3 cells per well and allowed to adhere for 6 h in media containing 10% FBS. • 2) The full serum media was replaced and cells incubated overnight in media containing 1% FBS, prior to addition of test compounds. • 3) Test compounds were prepared from 10 mM or 5 mM (BEZ-235) DMSO stocks to give final concentration ranges as indicated on graphs. DMSO was constant at a final concentration of 1%. • 4) Test compounds were incubated with cells in duplicate for 2 h at 37° C./5% CO2 in a humidified atmosphere. • 5) The media was removed and cells were lysed by freeze-thawing in cell lysis buffer. • 6) Detection of phosphorylated S6Ser235/236 was then carried out using a PathScan ELISA kit (Cell Signaling Technology #7205). • 7) Lysates were diluted 1:1 with sample diluent before being applied to wells coated with an antibody against phosphorylated-S6 protein. • 8) The ELISA was then performed as stated in the manufacturers' instructions. • 9) The raw data were normalised to control values and analysed using a 4-parameter logistic equation in GraphPad Prism.
(In an ELISA, binding on a coated surface is turned into a signal by an enzyme label.)

A further experiment has as its system MCF-7 cells. The experiment in a line: MCF-7 proliferation assay (Alamar blue). The format is cell-based. Conditions: Homo sapiens, MCF7, 72 h incubation, read-out: IC50 for inhibition of cell growth. As to the method: The following assay was used to determine the ability of test compounds to inhibit cell growth.
The following protocol was used: • 1) MCF-7 cells were seeded in 96-well plates at 5000 cells per well and allowed to adhere overnight prior to addition of compound or vehicle control. • 2) Test compounds were prepared from 10 mM DMSO stocks to give a final concentration range of 100 μM, 30 μM, 10 μM, 3 μM, 1 μM, 0.3 μM, 0.1 μM, 0.03 μM, 0.01 μM and vehicle control. The DMSO content was constant at 1%. • 3) Test compounds were incubated with the cells for 72 h at 37° C. 5% CO2 in a humidified atmosphere. • 4) Alamar blue 10% (v/v) was then added and incubated for a further 6 h, and fluorescent product detected using the BMG FLUOstar plate reader. • 5) Data were analysed using a 4-parameter logistic equation in Graph Pad Prism.
On the technique in general: The colour change of resazurin is a common sign of viable cells or microbes.

p70S6K (h), sequence (P23443 whole entry): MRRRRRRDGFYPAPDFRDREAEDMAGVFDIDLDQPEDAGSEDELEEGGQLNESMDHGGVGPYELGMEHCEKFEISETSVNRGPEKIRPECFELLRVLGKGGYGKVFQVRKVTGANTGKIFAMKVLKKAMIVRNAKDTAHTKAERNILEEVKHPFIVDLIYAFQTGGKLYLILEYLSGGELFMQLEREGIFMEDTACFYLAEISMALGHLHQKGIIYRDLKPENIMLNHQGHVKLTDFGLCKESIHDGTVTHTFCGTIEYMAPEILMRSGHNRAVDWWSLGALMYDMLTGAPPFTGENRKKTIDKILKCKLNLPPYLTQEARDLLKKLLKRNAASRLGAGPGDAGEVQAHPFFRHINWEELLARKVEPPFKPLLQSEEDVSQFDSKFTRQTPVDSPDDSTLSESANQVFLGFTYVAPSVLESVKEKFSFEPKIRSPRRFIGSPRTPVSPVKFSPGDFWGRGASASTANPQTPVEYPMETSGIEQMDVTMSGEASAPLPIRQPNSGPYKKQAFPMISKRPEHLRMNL

The term IC50 denotes the concentration needed to halve the response being measured. Turning to `COc1cccc([C@@H](C)Nc2cnc3cc(-c4cn[nH]c4)ccc3n2)c1` [Example 50, [(R)-1-(3-Methoxy-phenyl)-ethyl]-[6-(1H-pyrazol-4-yl)-quinoxalin-2-yl]-amine hydrochloride], the IC50 at p70S6K (h) is under 0.1 µM; in experiment [1] it was under 1 µM; with MCF-7 cells it was under 10 µM.

Take `Fc1ccc(CNc2cnc3cc(-c4cn[nH]c4)ccc3n2)cc1F` [Example 32, (3,4-Difluoro-benzyl)-[6-(1H-pyrazol-4-yl)-quinoxalin-2-yl]-amine]: the IC50 on p70S6K (h) is under 0.1 µM; in experiment [1], under 5 µM; with MCF-7 cells, under 50 µM.

On to `CN1CCN(c2cccc(CNc3cnc4cc(-c5cn[nH]c5)ccc4n3)c2)CC1` [Example 6, [3-(4-Methyl-piperazin-1-yl)-benzyl]-[6-(1H-pyrazol-4-yl)-quinoxalin-2-yl]-amine hydrochloride], for which the results for the IC50 (on p70S6K (h); in experiment [1]; with MCF-7 cells) were under 1 µM, under 5 µM and under 20 µM, respectively.

For `CCN(Cc1ccccc1)c1cnc2cc(-c3cn[nH]c3)ccc2n1` [Example 26, Benzyl-ethyl-[6-(1H-pyrazol-4-yl)-quinoxalin-2-yl]-amine], the IC50 at p70S6K (h) was under 0.1 µM; in the experiment on MCF-7 cells, under 50 µM.

In the case of `COc1cccc(CN(C)c2cnc3cc(-c4cn[nH]c4)ccc3n2)c1` [Example 27, (3-Methoxy-benzyl)-methyl-[6-(1H-pyrazol-4-yl)-quinoxalin-2-yl]-amine], the values for the half-maximal inhibitory concentration (IC50) (on p70S6K (h); in experiment [1]; in the experiment with MCF-7 cells) were under 0.1 µM, under 1 µM and under 50 µM, respectively.

Turning to `C[C@@H](Nc1cnc2cc(-c3cn[nH]c3)ccc2n1)c1ccccc1` [Example 33, ((R)-1-Phenyl-ethyl)-[6-(1H-pyrazol-4-yl)-quinoxalin-2-yl]-amine], the IC50 at p70S6K (h) was under 0.1 µM; in experiment [1] it was under 1 µM; in the experiment with MCF-7 cells, under 20 µM.

Take `c1cc(CNc2cnc3cc(-c4cn[nH]c4)ccc3n2)cc(N2CCOCC2)c1` [Example 7, (3-Morpholin-4-yl-benzyl)-[6-(1H-pyrazol-4-yl)-quinoxalin-2-yl]-amine hydrochloride]: the half-maximal inhibitory concentration (IC50) was under 5 µM at p70S6K (h), under 5 µM in experiment [1] and under 20 µM in the experiment with MCF-7 cells.

Consider `CN(C)CCOc1cccc(CNc2cnc3cc(-c4cn[nH]c4)ccc3n2)c1` [Example 31, [3-(2-Dimethylamino-ethoxy)-benzyl]-[6-(1H-pyrazol-4-yl)-quinoxalin-2-yl]-amine hydrochloride], for which the IC50 on p70S6K (h) is under 5 µM; with MCF-7 cells it was under 20 µM.

For the compound `CN(Cc1ccc(F)cc1)c1cnc2cc(-c3cn[nH]c3)ccc2n1` [Example 21, (4-Fluoro-benzyl)-methyl-[6-(1H-pyrazol-4-yl)-quinoxalin-2-yl]-amine], the IC50 was under 0.1 µM on p70S6K (h), under 5 µM in experiment [1] and under 50 µM with MCF-7 cells.

With `c1cc(CNc2cnc3cc(-c4cn[nH]c4)ccc3n2)cs1` [Example 38, [6-(1H-Pyrazol-4-yl)-quinoxalin-2-yl]-thiophen-3-ylmethyl-amine], the IC50 was under 0.1 µM on p70S6K (h) and under 10 µM in the experiment with MCF-7 cells.

Consider `Clc1cccc(CNc2cnc3cc(-c4cn[nH]c4)ccc3n2)c1` [Example 9, (3-Chloro-benzyl)-[6-(1H-pyrazol-4-yl)-quinoxalin-2-yl]-amine], for which the IC50 was under 0.1 µM at p70S6K (h), under 1 µM in experiment [1] and under 20 µM with MCF-7 cells.

On to `COc1cccc(CNc2cnc3cc(-c4cn[nH]c4)ccc3n2)c1` [Example 18, (3-Methoxy-benzyl)-[6-(1H-pyrazol-4-yl)-quinoxalin-2-yl]-amine], for which the results for the IC50 (on p70S6K (h); in experiment [1]; in the experiment with MCF-7 cells) were under 0.1 µM, under 1 µM and under 10 µM, respectively.

In the case of `Fc1ccccc1CNc1cnc2cc(-c3cn[nH]c3)ccc2n1` [Example 13, (2-Fluoro-benzyl)-[6-(1H-pyrazol-4-yl)-quinoxalin-2-yl]-amine hydrochloride], the figures for the IC50 on p70S6K (h) and with MCF-7 cells were under 1 µM and under 20 µM, respectively.

For the compound `Fc1ccc(CNc2cnc3cc(-c4cn[nH]c4)ccc3n2)cc1` [Example 11, (4-Fluoro-benzyl)-[6-(1H-pyrazol-4-yl)-quinoxalin-2-yl]-amine hydrochloride], the IC50 on p70S6K (h) is under 0.1 µM; in experiment [1], under 5 µM; with MCF-7 cells it was under 10 µM.

As for `Fc1cccc(CNc2cnc3cc(-c4cn[nH]c4)ccc3n2)c1` [Example 12, (3-Fluoro-benzyl)-[6-(1H-pyrazol-4-yl)-quinoxalin-2-yl]-amine hydrochloride], the figures for the IC50 (at p70S6K (h); in experiment [1]; with MCF-7 cells) were under 0.1 µM, under 5 µM and under 10 µM, respectively.

`Clc1ccc(CNc2cnc3cc(-c4cn[nH]c4)ccc3n2)cc1` [Example 8, (4-Chloro-benzyl)-[6-(1H-pyrazol-4-yl)-quinoxalin-2-yl]-amine]: the IC50 is under 0.1 µM at p70S6K (h), under 5 µM in experiment [1] and under 20 µM with MCF-7 cells.

For `CN(Cc1ccccc1)c1cnc2cc(-c3cn[nH]c3)ccc2n1` [Example 2, Benzyl-methyl-[6-(1H-pyrazol-4-yl)-quinoxalin-2-yl]-amine hydrochloride], the IC50 was under 0.1 µM at p70S6K (h), under 5 µM in experiment [1] and under 20 µM with MCF-7 cells.

In the case of `COc1ccc(CNc2cnc3cc(-c4cn[nH]c4)ccc3n2)cc1` [Example 17, (4-Methoxy-benzyl)-[6-(1H-pyrazol-4-yl)-quinoxalin-2-yl]-amine], the IC50 is under 1 µM on p70S6K (h), under 5 µM in experiment [1] and under 10 µM in the experiment with MCF-7 cells.

On to `c1ccc(CNc2cnc3cc(-c4cn[nH]c4)ccc3n2)cc1` [Example 1, Benzyl-[6-(1H-pyrazol-4-yl)-quinoxalin-2-yl]-amine], for which the results for the IC50 (on p70S6K (h); in experiment [1]; in the experiment with MCF-7 cells) were under 0.1 µM, under 5 µM and under 10 µM, respectively.

As to `OCCN(Cc1ccccc1)c1cnc2cc(-c3cn[nH]c3)ccc2n1` [Example 3, 2-{Benzyl-[6-(1H-pyrazol-4-yl)-quinoxalin-2-yl]-amino}-ethanol], the IC50 on p70S6K (h) was under 0.1 µM; in experiment [1] it was under 5 µM; with MCF-7 cells it was under 20 µM.

For the compound `Cc1cccc(CNc2cnc3cc(-c4cn[nH]c4)ccc3n2)c1` [Example 41, (3-Methyl-benzyl)-[6-(1H-pyrazol-4-yl)-quinoxalin-2-yl]-amine], the figures for the IC50 (on p70S6K (h); in experiment [1]; in the experiment with MCF-7 cells) were under 0.1 µM, under 1 µM and under 10 µM, respectively.

On to `CN(Cc1cccc(F)c1)c1cnc2cc(-c3cn[nH]c3)ccc2n1` [Example 28, (3-Fluoro-benzyl)-methyl-[6-(1H-pyrazol-4-yl)-quinoxalin-2-yl]-amine], for which the IC50 is under 0.1 µM at p70S6K (h), under 1 µM in experiment [1] and under 10 µM in the experiment on MCF-7 cells.

Consider `C[C@@H](c1cccc(F)c1)N(C)c1cnc2cc(-c3cn[nH]c3)ccc2n1` [Example 60, [(S)-1-(3-Fluoro-phenyl)-ethyl]-methyl-[6-(1H-pyrazol-4-yl)-quinoxalin-2-yl]-amine], for which the results for the 50% inhibitory concentration (IC50) (on p70S6K (h); in experiment [1]) were under 1 µM and under 20 µM, respectively.

With `c1ccc(CCNc2cnc3cc(-c4cn[nH]c4)ccc3n2)cc1` [Example 25, Phenethyl-[6-(1H-pyrazol-4-yl)-quinoxalin-2-yl]-amine hydrochloride], the IC50 was under 0.1 µM on p70S6K (h), under 5 µM in experiment [1] and under 20 µM with MCF-7 cells.

Source of the values: patent US8716473B2, “Substituted benzotriazines and quinoxalines as inhibitors of P7OS6 kinase” (Sentinel Oncology Limited, priority 2009, dated 2014).
